Data taken from US6281342A, “Pradimicin compounds” (Bristol-Myers Squibb Company, priority 1994, dated 2001).
Values after ≈ are worked out from the molar mass of the structure shown. Read-outs that look alike come from different tables or passages of the source.

Tests used:
[1] = test system: Saccharomyces cerevisiae ATCC 9763; assay: MIC, two-fold agar dilution, S. cerevisiae ATCC 9763; format: cell-based; conditions: ATCC9763, YMA pH 7.0, 28° C., 40 hours
Method: (§1) Minimum inhibitory concentrations (MICs) of nine 4'-N-substituted pradimicin derivatives were determined by two-fold agar dilution method on phosphate-buffered yeast morphology agar (YMA, pH 7.0, Difco Laboratories). A 5-μl of fungal cell suspension containing 2×10^6 cells/ml (2×10^7 cells/ml for Trichophyton mentagrophytes) were spotted on the surface of the agar plates containing test compound. MICs were recorded after 40-hour incubation at 28° C. except for T. mentagrophytes, which required 60-hour incubation to produce visually evaluable growth on the drug-free control plates and were defined as the lowest antibiotic concentrations showing no growth or less than five discrete colonies per spot.
(§2) Medium: yeast morphology agar + 1/15 M phosphate buffer (pH 7.0)
(§3) Incubation conditions: 28° C., 40 hours (C. albicans ATCC 38247 & T.
(§4) Medium: Yeast morphology agar + 1/15 phosphate buffer (pH 7.0).

[2] = test system: Candida albicans IAM 4888; assay: MIC, two-fold agar dilution, C. albicans IAM 4888; format: cell-based; conditions: IAM4888, YMA pH 7.0, 28° C., 40 hours
Method: as §1, §2, §3, §4

[3] = test system: Trichophyton mentagrophytes #4329; assay: MIC, two-fold agar dilution, T. mentagrophytes #4329; format: cell-based
Method: as §1, §2, §3
(§5) mentagrophytes #4329: 28° C., 60 hours).
as §4

[4] = test system: Aspergillus fumigatus IAM 2034; assay: Therapeutic efficacy in Aspergillus fumigatus systemic infection in mice; format: in vivo, male ICR mice infected with Aspergillus fumigatus IAM 2034; conditions: for S/T (No. of survivors/tested) / responders at 12.5 mg/kg / responders at 25 mg/kg / responders at 50 mg/kg: 20th day post-infection; for responders at 12.5 mg/kg / responders at 25 mg/kg / responders at 50 mg/kg: read-out: S/T (No. of survivors/tested) (converted)
Method: (§6) The in vivo therapeutic efficacies of seven 4'-N-substituted pradimicin derivatives, KHM-1, KHM-2, KHM-3, KHM-4, KHM-5, KHM-6 and KHM-7 were evaluated in the mouse infected with Candida albicans A9540 and Aspergillus fumigatusIAM 2034. Groups of five specific-pathogen-free male ICR mice weighing 20-25 g at each dose level were intravenously infected with approximately 10 times the 50% lethal dose of C. albicans A9540 (1×10^6 cells/mouse) or A. fumigatus IAM 2034 (1×10^7 cells/mouse). Immediately after the fungal infection, test compounds dissolved with 10% DMSO in distilled water were intravenously given to the mouse at the dosed volume of 0.1 ml/10 g of body weight. […] Untreated control animals died 7 to 13 days post-infection.

[5] = test system: Candida albicans ATCC 38247; assay: MIC, two-fold agar dilution, C. albicans ATCC 38247; format: cell-based; conditions: ATCC38247, YMA pH 7.0, 28° C., 60 hours (table footnote)
Method: as §1, §2, §3, §5, §4

Candida albicans 83-2-14 = assay: MIC, two-fold agar dilution, C. albicans 83-2-14; format: cell-based; conditions: 83214, YMA pH 7.0, 28° C., 40 hours
Method: as §1, §2, §3, §4

[6] = test system: Aspergillus fumigatus IAM 2034; assay: MIC, two-fold agar dilution, A. fumigatus IAM 2034; format: cell-based; conditions: IAM2034
Method: as §1, §2, §3, §4

[7] = test system: Cryptococcus neoformans IAM 4514; assay: MIC, two-fold agar dilution, C. neoformans IAM 4514; format: cell-based; conditions: IAM4514
Method: as §1, §2, §3, §4

[8] = test system: Cryptococcus neoformans D49; assay: MIC, two-fold agar dilution, C. neoformans D49; format: cell-based; conditions: YMA pH 7.0, 28° C., 40 hours
Method: as §1, §2, §3, §4

Candida albicans A9540 [9] = assay: animal or person; format: in vivo, male ICR mice infected with Candida albicans A9540
Method: as §6

[10] = test system: Candida albicans ATCC 32354; assay: MIC, two-fold agar dilution, C. albicans ATCC 32354; format: cell-based; conditions: ATCC32354, YMA pH 7.0, 28° C., 40 hours
Method: as §1, §2, §3, §4

[11] = test system: Candida tropicalis IFO 10241; assay: MIC, two-fold agar dilution, C. tropicalis IFO 10241; format: cell-based; conditions: IFO10241, YMA pH 7.0, 28° C., 40 hours
Method: as §1, §2, §3, §4

Candida albicans A9540 [12] = assay: MIC, two-fold agar dilution, C. albicans A9540; format: cell-based
Method: as §1, §2, §3, §4

Candida tropicalis 85-8 = assay: MIC, two-fold agar dilution, C. tropicalis 85-8; format: cell-based; conditions: 858, YMA pH 7.0, 28° C., 40 hours
Method: as §1, §2, §3, §4

[13] = Table 3, Trichophyton mentagrophytes #4329, YMA, read-out: MIC TM-4
[14] = Trichophyton mentagrophytes #4329, YMA pH 7.0, 28° C., 60 hours, read-out: MIC
[15] = IAM2034, 480 h, Table 3, Aspergillus fumigatus IAM 2034, iv, read-out: PD50 (mice) Af-3
[16] = Aspergillus fumigatus IAM 2034, YMA pH 7.0, 28° C., 40 hours, read-out: MIC
[17] = Table 3, Aspergillus fumigatus IAM 2034, YMA, read-out: MIC Af-3
[18] = Cryptococcus neoformans IAM 4514, YMA pH 7.0, 28° C., 40 hours, read-out: MIC
[19] = Table 3, Cryptococcus neoformans IAM 4514, YMA, read-out: MIC Cn-2
[20] = Candida albicans, A9540, 480 h, Table 2, C. albicans, mice, iv, 95% confidence limits in parentheses, read-out: PD50 (50% protection dose)
[21] = Candida albicans A9540, YMA pH 7.0, 28° C., 40 hours, read-out: MIC
[22] = Table 3, Candida albicans A9540, YMA, read-out: MIC Ca-4
[23] = Aspergillus fumigatus, IAM2034, 480 h, A. fumigatus, mice, 12.5 mg/kg iv
[24] = Aspergillus fumigatus, IAM2034, 480 h, A. fumigatus, mice, 25 mg/kg iv
[25] = Aspergillus fumigatus, IAM2034, 480 h, A. fumigatus, mice, 50 mg/kg iv
[26] = Aspergillus fumigatus, IAM2034, 480 h, Table 2, A. fumigatus, mice, iv, 95% confidence limits in parentheses, read-out: PD50 (50% protection dose)
[27] = 480 h, Table 3, Candida albicans A9540, iv, read-out: PD50 (mice) Ca-4
[28] = Candida albicans, A9540, in Mus musculus, iv, 480 h, read-out: S/T (No. of survivors/tested)

Row | Structure (SMILES) | MIC [1] [µg/mL] | MIC [2] [µg/mL] | MIC [3, 13] [µg/mL] | MIC [3, 14] [µg/mL] | ED50 [4, 15] [mg/kg] | MIC [5] [µg/mL] | MIC (Candida albicans 83-2-14) [µg/mL] | MIC [6, 16] [µg/mL] | MIC [6, 17] [µg/mL] | MIC [7, 18] [µg/mL] | MIC [7, 19] [µg/mL] | MIC [8] [µg/mL] | ED50 (Candida albicans A9540 [9]; [20]) [mg/kg] | MIC [10] [µg/mL] | MIC [11] [µg/mL] | MIC (Candida albicans A9540 [12]; [21]) [µg/mL] | MIC (Candida albicans A9540 [12]; [22]) [µg/mL] | MIC (Candida tropicalis 85-8) [µg/mL] | responders at 12.5 mg/kg [4, 23] [%] | responders at 25 mg/kg [4, 24] [%] | also measured
1 | COc1cc(O)c2c(c1)C(=O)c1c(cc3c(c1O)-c1c(cc(C)c(C(=O)N[C@H](C)C(=O)O)c1O)[C@H](O[C@@H]1O[C@H](C)[C@H](N(C)C#N)[C@H](O[C@@H]4OC[C@@H](O)[C@H](O)[C@H]4O)[C@H]1O)[C@H]3O)C2=O [KHM-1, 4'-N-Cyanogradimicin A] | 1.6 (≈ 1.85 µM) | 3.1 (≈ 3.58 µM) | 25 (≈ 28.9 µM) | 25 (≈ 28.9 µM) | > 50 | 1.6 (≈ 1.85 µM) | 3.1 (≈ 3.58 µM) | 12.5 (≈ 14.4 µM) | 12.5 (≈ 14.4 µM) | 3.1 (≈ 3.58 µM) | 3.1 (≈ 3.58 µM) | 3.1 (≈ 3.58 µM) | 13 | 3.1 (≈ 3.58 µM) | 12.5 (≈ 14.4 µM) | 3.1 (≈ 3.58 µM) | 3.1 (≈ 3.58 µM) | 12.5 (≈ 14.4 µM) |  |  | S/T (No. of survivors/tested) ([4]; A. fumigatus, mice, 6.3 mg/kg iv): 0.5; S/T (No. of survivors/tested) ([4]; A. fumigatus, mice, 12.5 mg/kg iv): 2/5; S/T (No. of survivors/tested) ([4]; A. fumigatus, mice, 25 mg/kg iv): 0/5; S/T (No. of survivors/tested) ([4]; A. fumigatus, mice, 50 mg/kg iv): 1/5; ED50 ([4]; Aspergillus fumigatus, IAM2034, iv, 480 h, read-out: PD50 (50% protection dose)): > 50 mg/kg; S/T (No. of survivors/tested) (Candida albicans A9540 [9]; C. albicans, mice, 6.3 mg/kg iv, 20th day post-infection): 1/5; S/T (No. of survivors/tested) (Candida albicans A9540 [9]; C. albicans, mice, 12.5 mg/kg iv, 20th day post-infection): 3/5; S/T (No. of survivors/tested) (Candida albicans A9540 [9]; C. albicans, mice, 25 mg/kg iv, 20th day post-infection): 4/5; S/T (No. of survivors/tested) (Candida albicans A9540 [9]; C. albicans, mice, 50 mg/kg iv, 20th day post-infection): 5/5
2 | COc1cc(O)c2c(c1)C(=O)c1c(cc3c(c1O)-c1c(cc(C)c(C(=O)N[C@H](CO)C(=O)O)c1O)[C@H](O[C@@H]1O[C@H](C)[C@H](N(C)C#N)[C@H](O[C@@H]4OC[C@@H](O)[C@H](O)[C@H]4O)[C@H]1O)[C@H]3O)C2=O [KHM-3, 4'-Cyanooradimicin FA-1] | 1.6 (≈ 1.81 µM) | 6.3 (≈ 7.14 µM) | 50 (≈ 56.7 µM) | 50 (≈ 56.7 µM) | > 50 | 3.1 (≈ 3.52 µM) | 6.3 (≈ 7.14 µM) | 25 (≈ 28.4 µM) | 25 (≈ 28.4 µM) | 6.3 (≈ 7.14 µM) | 6.3 (≈ 7.14 µM) | 6.3 (≈ 7.14 µM) | > 50 | 6.3 (≈ 7.14 µM) | 12.5 (≈ 14.2 µM) | 6.3 (≈ 7.14 µM) | 6.3 (≈ 7.14 µM) | 12.5 (≈ 14.2 µM) | 0 | 0 | responders at 50 mg/kg [4, 25]: 0%; ED50 [4, 26]: > 50 mg/kg; ED50 (Candida albicans A9540 [9]; [27]): > 50 mg/kg; responders at 12.5 mg/kg (Candida albicans A9540 [9]; Candida albicans, A9540, 480 h, C. albicans, mice, 12.5 mg/kg iv, 20th day post-infection, read-out: S/T (No. of survivors/tested) (converted)): 0%; responders at 25 mg/kg (Candida albicans A9540 [9]; Candida albicans, A9540, 480 h, C. albicans, mice, 25 mg/kg iv, 20th day post-infection, read-out: S/T (No. of survivors/tested) (converted)): 0%; responders at 50 mg/kg (Candida albicans A9540 [9]; Candida albicans, A9540, 480 h, C. albicans, mice, 50 mg/kg iv, 20th day post-infection, read-out: S/T (No. of survivors/tested) (converted)): 40%
3 | COc1cc(O)c2c(c1)C(=O)c1c(cc3c(c1O)-c1c(cc(C)c(C(=O)N[C@H](CO)C(=O)O)c1O)[C@H](O[C@@H]1O[C@H](C)[C@H](N(C)N=O)[C@H](O[C@@H]4OC[C@@H](O)[C@H](O)[C@H]4O)[C@H]1O)[C@H]3O)C2=O [KHM-5, 4'-N-Nitrosopradimicin FA-1] | 3.1 (≈ 3.5 µM) | 6.3 (≈ 7.11 µM) | 6.3 (≈ 7.11 µM) | 6.3 (≈ 7.11 µM) | > 50 | 3.1 (≈ 3.5 µM) | 6.3 (≈ 7.11 µM) | 3.1 (≈ 3.5 µM) | 3.1 (≈ 3.5 µM) | 3.1 (≈ 3.5 µM) | 3.1 (≈ 3.5 µM) | 3.1 (≈ 3.5 µM) | > 50 | 6.3 (≈ 7.11 µM) | 12.5 (≈ 14.1 µM) | 6.3 (≈ 7.11 µM) | 6.3 (≈ 7.11 µM) | 12.5 (≈ 14.1 µM) | 0 | 0 | responders at 50 mg/kg [4, 25]: 40%; ED50 [4, 26]: > 50 mg/kg; ED50 (Candida albicans A9540 [9]; [27]): > 50 mg/kg; responders at 12.5 mg/kg (Candida albicans A9540 [9]; [28]): 20%; responders at 25 mg/kg (Candida albicans A9540 [9]; [28]): 0%; responders at 50 mg/kg (Candida albicans A9540 [9]; [28]): 40%
